Measurements reported in patent publication US9944645B2, “Imidazotriazines and imidazopyrimidines as kinase inhibitors” (Incyte Holdings Corporation, priority 2006, dated 2018).

The compounds below were run against c-Met kinase (h-Met; histidine-tagged c-Met catalytic domain fusion protein) (Homo sapiens (Human), UniProt P08581) (assay: In Vitro c-Met Kinase Enzyme Assays). Conditions: phosphorylation of poly Glu-Tyr, 5 μM ATP, 25 minutes at 30° C.
Assay type: biochemical
Outline: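 His-tagged c-Met catalytic domain reacted 25 min at 30° C, within the linear initial-rate range. Phosphotyrosine detected by ELISA with peroxidase-labeled anti-phospho-tyrosine antibody and TMB, OD read at 450 nm (540 nm correction); IC50 from curve fit.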

c-Met kinase (h-Met; histidine-tagged c-Met catalytic domain fusion protein), sequence (P08581 1078-1345): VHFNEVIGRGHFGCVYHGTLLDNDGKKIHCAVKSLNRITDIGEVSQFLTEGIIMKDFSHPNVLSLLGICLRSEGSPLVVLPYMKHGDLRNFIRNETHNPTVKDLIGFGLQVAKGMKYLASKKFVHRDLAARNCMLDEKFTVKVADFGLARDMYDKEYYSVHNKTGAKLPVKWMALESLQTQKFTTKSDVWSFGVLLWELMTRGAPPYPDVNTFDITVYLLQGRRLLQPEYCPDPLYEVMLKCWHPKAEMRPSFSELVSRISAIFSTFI

IC50 | SMILES
< 0.5 µM | O=C(NC1CC1)c1ccc(-c2cnc3ncc(C4(c5ccc6ncccc6c5)CC4)n3c2)cc1F [Example 170, N-Cyclopropyl-2-fluoro-4-[3-(1-quinolin-6-ylcyclopropyl)imidazo[1,2-a]pyrimidin-6-yl]benzamide]
< 0.5 µM | COC[C@@H](NC(=O)c1ccc(-c2cnc3ncc(C4(c5ccc6ncccc6c5)CC4)n3c2)cc1F)C(C)C [Example 171, 2-Fluoro-N-[(1S)-1-(methoxymethyl)-2-methylpropyl]-4-[3-(1-quinolin-6-ylcyclopropyl)imidazo[1,2-a]pyrimidin-6-yl]benzamide]
< 0.5 µM | NC(=O)c1ccc(-c2cnc3ncc(C4(c5ccc6ncccc6c5)CC4)n3c2)cc1F [Example 172, 2-Fluoro-4-[3-(1-quinolin-6-ylcyclopropyl)imidazo[1,2-a]pyrimidin-6-yl]benzamide]
< 0.5 µM | CN(CCN(C)c1ccccn1)C(=O)c1ccc(-c2cnc3ncc(C4(c5ccc6ncccc6c5)CC4)n3c2)cc1F [Example 173, 2-Fluoro-N-methyl-N-2-[methyl(pyridin-2-yl)amino]ethyl-4-[3-(1-quinolin-6-ylcyclopropyl)imidazo[1,2-a]pyrimidin-6-yl]benzamide]
< 0.5 µM | CNC(=O)c1ccc(-c2cnc3ncc(C4(c5ccc6ncccc6c5)CC4)n3c2)cc1Cl [Example 174, 2-Chloro-N-methyl-4-[3-(1-quinolin-6-ylcyclopropyl)imidazo[1,2-a]pyrimidin-6-yl]benzamide]
< 0.5 µM | O=C(NC1CC1)c1ccc(-c2cnc3ncc(C4(c5ccc6ncccc6c5)CC4)n3c2)cc1Cl [Example 175, 2-Chloro-N-cyclopropyl-4-[3-(1-quinolin-6-ylcyclopropyl)imidazo[1,2-a]pyrimidin-6-yl]benzamide]
< 0.5 µM | O=C(NC1CCOC1)c1ccc(-c2cnc3ncc(C4(c5ccc6ncccc6c5)CC4)n3c2)cc1Cl (centres unmarked) [Example 176, 2-Chloro-4-[3-(1-quinolin-6-ylcyclopropyl)imidazo[1,2-a]pyrimidin-6-yl]-N-(tetrahydrofuran-3-yl)benzamide]
< 0.5 µM | CC(NC(=O)c1ccc(-c2cnc3ncc(C4(c5ccc6ncccc6c5)CC4)n3c2)cc1Cl)c1ccccn1 (centres unmarked) [Example 177, 2-Chloro-N-(1-pyridin-2-ylethyl)-4-[3-(1-quinolin-6-ylcyclopropyl)imidazo[1,2-a]pyrimidin-6-yl]benzamide]
< 0.5 µM | O=C(c1ccc(-c2cnc3ncc(C4(c5ccc6ncccc6c5)CC4)n3c2)cc1Cl)N1CCC1 [Example 178, 6-(1-{6-[4-(Azetidin-1-ylcarbonyl)-3-chlorophenyl]imidazo[1,2-a]pyrimidin-3-yl}cyclopropyl)quinoline]
< 0.5 µM | O=C(NC1CCN(c2ccccn2)C1)c1ccc(-c2cnc3ncc(C4(c5ccc6ncccc6c5)CC4)n3c2)cc1Cl (centres unmarked) [Example 179, 2-Chloro-N-(1-pyridin-2-ylpyrrolidin-3-yl)-4-[3-(1-quinolin-6-ylcyclopropyl)imidazo[1,2-a]pyrimidin-6-yl]benzamide]
< 0.5 µM | CC(COc1ccccn1)NC(=O)c1ccc(-c2cnc3ncc(C4(c5ccc6ncccc6c5)CC4)n3c2)cc1Cl (centres unmarked) [Example 180, 2-Chloro-N-[1-methyl-2-(pyridin-2-yloxy)ethyl]-4-[3-(1-quinolin-6-ylcyclopropyl)imidazo[1,2-a]pyrimidin-6-yl]benzamide]
< 0.5 µM | CC(C)[C@H](NC(=O)c1ccc(-c2cnc3ncc(C4(c5ccc6ncccc6c5)CC4)n3c2)cc1Cl)C(=O)N(C)C [Example 181, 2-Chloro-N-(1S)-1-[(dimethylamino)carbonyl]-2-methylpropyl-4-[3-(1-quinolin-6-ylcyclopropyl)imidazo[1,2-a]pyrimidin-6-yl]benzamide]
< 0.5 µM | O=C1c2ccc(-c3cnc4ncc(C5(c6ccc7ncccc7c6)CC5)n4c3)cc2CN1C1CC1 [Example 182, 2-Cyclopropyl-5-[3-(1-quinolin-6-ylcyclopropyl)imidazo[1,2-a]pyrimidin-6-yl]isoindolin-1-one]
< 0.5 µM | CCN1Cc2cc(-c3cnc4ncc(C5(c6ccc7ncccc7c6)CC5)n4c3)ccc2C1=O [Example 183, 2-Ethyl-5-[3-(1-quinolin-6-ylcyclopropyl)imidazo[1,2-a]pyrimidin-6-yl]isoindolin-1-one]
< 0.5 µM | COCC(C)N1Cc2cc(-c3cnc4ncc(C5(c6ccc7ncccc7c6)CC5)n4c3)ccc2C1=O (centres unmarked) [Example 184, 2-(2-Methoxy-1-methylethyl)-5-[3-(1-quinolin-6-ylcyclopropyl)imidazo[1,2-a]pyrimidin-6-yl]isoindolin-1-one]
< 0.5 µM | O=C1c2ccc(-c3cnc4ncc(C5(c6ccc7ncccc7c6)CC5)n4c3)cc2CN1Cc1ccccn1 [Example 185, 2-(Pyridin-2-ylmethyl)-5-[3-(1-quinolin-6-ylcyclopropyl)imidazo[1,2-a]pyrimidin-6-yl]isoindolin-1-one]
< 0.5 µM | CN1Cc2cc(-c3cnc4ncc(C5(c6ccc7ncccc7c6)CC5)n4c3)ccc2C1=O [Example 186, 2-Methyl-5-[3-(1-quinolin-6-ylcyclopropyl)imidazo[1,2-a]pyrimidin-6-yl]isoindolin-1-one]
< 0.5 µM | CCNC(=O)C1(c2ccc(-c3cnc4ncc(C5(c6ccc7ncccc7c6)CC5)n4c3)cc2)CC1 [Example 187, N-Ethyl-1-{4-[3-(1-quinolin-6-ylcyclopropyl)imidazo[1,2-a]pyrimidin-6-yl]phenyl}cyclopropanecarboxamide]
< 0.5 µM | CC(NC(=O)C1(c2ccc(-c3cnc4ncc(C5(c6ccc7ncccc7c6)CC5)n4c3)cc2)CC1)c1ccccn1 (centres unmarked) [Example 188, N-(1-Pyridin-2-ylethyl)-1-{4-[3-(1-quinolin-6-ylcyclopropyl)imidazo[1,2-a]pyrimidin-6-yl]phenyl}cyclopropanecarboxamide]

The next lines start with the compound.

SMILES | IC50
CC(C)(C)[C@@H](CO)NC(=O)c1ccc(-c2cnc3ncc(Cc4ccc5ncccc5c4)n3n2)cc1F [Example 157, 2-Fluoro-N-[(1S)-1-(hydroxymethyl)-2,2-dimethylpropyl]-4-[7-(quinolin-6-ylmethyl)imidazo[1,2-b][1,2,4]triazin-2-yl]benzamide] | < 0.5 µM
O=C(NC1(CO)CCCC1)c1ccc(-c2cnc3ncc(Cc4ccc5ncccc5c4)n3n2)cc1F [Example 158, 2-Fluoro-N-[1-(hydroxymethyl)cyclopentyl]-4-[7-(quinolin-6-ylmethyl)imidazo[1,2-b][1,2,4]triazin-2-yl]benzamide] | < 0.5 µM
CC(c1ccc2ncccc2c1)c1cnc2ncc(-c3ccc(C(=O)N[C@H]4CC[C@H](O)CC4)c(F)c3)nn12 (stereo partly drawn) [Example 159, 2-Fluoro-N-(trans-4-hydroxycyclohexyl)-4-[7-(1-quinolin-6-ylethyl)imidazo[1,2-b][1,2,4]triazin-2-yl]benzamide] | < 0.5 µM
CNC(=O)c1ccc(-c2cnc3ncc(C(C)c4ccc5ncccc5c4)n3n2)cc1F (centres unmarked) [Example 160, 2-Fluoro-N-methyl-4-[7-(1-quinolin-6-ylethyl)imidazo[1,2-b][1,2,4]triazin-2-yl]benzamide] | < 0.5 µM
CC(c1ccc2ncccc2c1)c1cnc2ncc(-c3ccc(C(=O)NC4CC4)c(F)c3)nn12 (centres unmarked) [Example 161, N-Cyclopropyl-2-fluoro-4-[7-(1-quinolin-6-ylethyl)imidazo[1,2-b][1,2,4]triazin-2-yl]benzamide] | < 0.5 µM
COCC1(NC(=O)c2ccc(-c3cnc4ncc(C(C)c5ccc6ncccc6c5)n4n3)cc2F)CC1 (centres unmarked) [Example 162, 2-Fluoro-N-[1-(methoxymethyl)cyclopropyl]-4-[7-(1-quinolin-6-ylethyl)imidazo[1,2-b][1,2,4]triazin-2-yl]benzamide] | < 0.5 µM
COCC(C)NC(=O)c1ccc(-c2cnc3ncc(C4(c5ccc6ncccc6c5)CC4)n3c2)cc1F (centres unmarked) [Example 163, 2-Fluoro-N-(2-methoxy-1-methylethyl)-4-[3-(1-quinolin-6-ylcyclopropyl)imidazo[1,2-a]pyrimidin-6-yl]benzamide] | < 0.5 µM
O=C(c1ccc(-c2cnc3ncc(C4(c5ccc6ncccc6c5)CC4)n3c2)cc1F)N1CC[C@H](F)C1 [Example 164, 6-{1-[6-(3-Fluoro-4-[(3S)-3-fluoropyrrolidin-1-yl]carbonylphenyl)imidazo[1,2-a]pyrimidin-3-yl]cyclopropyl}quinoline] | < 0.5 µM
O=C(NCc1ccccn1)c1ccc(-c2cnc3ncc(C4(c5ccc6ncccc6c5)CC4)n3c2)cc1F [Example 165, 2-Fluoro-N-(pyridin-2-ylmethyl)-4-[3-(1-quinolin-6-ylcyclopropyl)imidazo[1,2-a]pyrimidin-6-yl]benzamide] | < 0.5 µM
O=C(NC1(c2ccccn2)CC1)c1ccc(-c2cnc3ncc(C4(c5ccc6ncccc6c5)CC4)n3c2)cc1F [Example 166, 2-Fluoro-N-(1-pyridin-2-ylcyclopropyl)-4-[3-(1-quinolin-6-ylcyclopropyl)imidazo[1,2-a]pyrimidin-6-yl]benzamide] | < 0.5 µM
O=C(NC1CCN(c2ccccn2)C1)c1ccc(-c2cnc3ncc(C4(c5ccc6ncccc6c5)CC4)n3c2)cc1F (centres unmarked) [Example 167, 2-Fluoro-N-(1-pyridin-2-ylpyrrolidin-3-yl)-4-[3-(1-quinolin-6-ylcyclopropyl)imidazo[1,2-a]pyrimidin-6-yl]benzamide] | < 0.5 µM
O=C(N[C@@H]1CCOC1)c1ccc(-c2cnc3ncc(C4(c5ccc6ncccc6c5)CC4)n3c2)cc1F [Example 168, 2-Fluoro-4-[3-(1-quinolin-6-ylcyclopropyl)imidazo[1,2-a]pyrimidin-6-yl]-N-[(3R)-tetrahydrofuran-3-yl]benzamide] | < 0.5 µM
O=C(NCC1CCCO1)c1ccc(-c2cnc3ncc(C4(c5ccc6ncccc6c5)CC4)n3c2)cc1F (centres unmarked) [Example 169, 2-Fluoro-4-[3-(1-quinolin-6-ylcyclopropyl)imidazo[1,2-a]pyrimidin-6-yl]-N-(tetrahydrofuran-2-ylmethyl)benzamide] | < 0.5 µM
